Holding throughout (type): cell-based
Assay [1] concerns MDA-MB-231 cells. Put plainly: Elongation factor (length-to-width ratio), MDA-MB-231. The settings on record: MDA-MB-231, with NGF. As to the method:
Therefore, in this study, we assessed TrkA binding to CD44v3 in MDA-MB-231 cells, which were used as TNBC model cells. First, PLA was performed using anti-CD44 variant 3- (Fig. 3A and Supplementary Fig. 7) or anti-CD44 variant 6-specific antibodies (Fig. 3B). […] Next, we tested the ability of CD44v3 mimetic peptides to block TrkA/CD44v3 complex formation in MDA-MB-231 cells (Fig. 3C-E). […] Therefore, we evaluated the physiological consequences of TrkA/CD44v3 complex dissociation induced by CD44v3 mimetic peptide 4 on MDA-MB-231 cell phenotypes (Fig. 4). We first examined the effect of mimetic peptide 4 on clonogenic cell growth. For this experiment, MDA-MB-231 cells were grown in the presence of 2% FBS for […] in the presence or absence of CD44v3 mimetic peptide 4 (Fig. 4A and B). […] We first determined the effect of CD44v3 on the length-to-width (l/w) ratio of the cells (elongation factor) (Fig. 4C-E). […]
Fig. 4 CD44v3 mimetic peptide 4 inhibits MDA-MB-231 breast cancer cell growth and migration/invasion. Clonogenic MDA-MB-231 cell growth was measured after 10 days in the presence of a scramble peptide (SP) or CD44v3 mimetic peptide (P4) (A, B). The elongation factor (length-to-width ratio) was assessed after 10 days in the presence or absence of NGF (C, D, E). […] Invasion through collagen 1 was measured by the Transwell assay 16 h after treatment (J, K). […]

In assay [2] the test system is MDA-MB-231 cells. As to the kind of experiment: Transwell invasion assay through collagen I, MDA-MB-231. The settings on record: peptide 50 ng/mL for 30 min, NGF in lower chamber, 24 h (legend: 16 h). How it is done: Transwell invasion assays were performed to assess cancer cell invasion in a Transwell chamber containing a collagen I-coated membrane (12-wells with inserts and […] pore size membranes; Corning, Life Sciences). A total of 1 × 10^6 starved cells (0.1% in SVF medium) were plated in the top chamber and incubated for 10 min before treatment with a peptide (50 ng/mL for 30 min); NGF was added to the lower chamber. After 24 h, the cells were fixed with methanol for 10 min and stained with Hoechst 33258 (1 mg/mL) for 30 min, and the cells that invaded the lower surface through the pores of the inserts were automatically counted under an inverted microscope with ImageJ software (with an in-house-developed plug-in).
(§1) Fig. 4 CD44v3 mimetic peptide 4 inhibits MDA-MB-231 breast cancer cell growth and migration/invasion. Clonogenic MDA-MB-231 cell growth was measured after 10 days in the presence of a scramble peptide (SP) or CD44v3 mimetic peptide (P4) (A, B). The elongation factor (length-to-width ratio) was assessed after 10 days in the presence or absence of NGF (C, D, E). Migration assays were performed using Ibidi devices 24 h after treatment (H, I). Invasion through collagen 1 was measured by the Transwell assay 16 h after treatment (J, K). Statistical analyses were performed using one-way ANOVA followed by Bonferroni’s posttest. […]

Assay [3] has as its system TrkA/CD44v3 complex in MDA-MB-231 cells. Put plainly: PLA TrkA/CD44v3 complex formation in MDA-MB-231 cells. As to conditions: NGF 100 ng/ml; 30 fields per condition, three experiments. How it is done:
Cells (10,000 cells per well) were grown on acid-washed eight-well glass slides (Thermo Scientific) in the appropriate medium supplemented with 10% FBS for 24 h. After NGF treatment, paraformaldehyde (PAF)-fixed cells were incubated with 4% bovine serum albumin (BSA) or 5% FBS (for 1 h at 20 °C), followed by overnight incubation with primary antibodies (rabbit anti-TrkA or rabbit anti-IgG + mouse anti-pan-CD44; mouse anti-CD44v3; mouse anti-CD44v6; mouse anti-IgG2a; mouse anti-IgG2b; or mouse anti-IgG1). PLA was performed following the manufacturer’s instructions in the assay kit (Duolink PLA; Sigma–Aldrich). To obtain the correct representation of the PLA signal for each condition, 30 fields per condition were observed using a fluorescence microscope (Eclipse TiU; Nikon, Japan). The PLA signals (red dots) were automatically quantified using ImageJ software (with an in-house-developed plug-in). After PLA, statistical analyses were performed using GraphPad Prism software to determine the mean dot intensity in the cells.
Fig. 3 CD44v3 mimetic peptide 4 blocks the TrkA-CD44 association in MDA-MB-231 breast cancer cells. TrkA/CD44v3 (A) and TrkA/CD44v6 (B) complex associations were detected by the proximity ligation assay (PLA) in MDA-MB-231 breast cancer cells. Effects of a scramble peptide (SP) (C), CD44v3 mimetic peptide 3 (P3) and 4 (P4) (D) on TrkA/CD44v3 complex formation induced by NGF. Quantification of the PLA results was performed by ImageJ software (30 randomly chosen fields per condition of three different experiments). Statistical analyses were performed using one-way ANOVA followed by Bonferroni’s posttest. The error bars represent the standard error of the mean (S.E.M.); * p < 0.05, ** p < 0.01, *** p < 0.001; ns, not significant

The test system of assay [4] is MDA-MB-231 cells. As to the kind of experiment: Scratch/wound migration assay, MDA-MB-231. The settings on record: peptide 50 ng/mL 30 min before NGF 100 ng/ml; 24 h, 0.1% FBS; siCD44v3 24 h after treatment. As to the method: Scratch/wound migration assays were performed using inserts (Ibidi, Germany). MDA-MB-231 cells (4 × 10^5 cells/mL) were seeded onto each side of the chamber and incubated overnight at 37 °C until they reached the subconfluent stage. Next, the inserts were removed, and the cells were rinsed and starved (1 mL of 0.1% FBS medium for 1 h). Images of the initial wound were obtained using an inverted microscope, and the cells were incubated with or without the peptide (scramble or P4; 50 ng/mL) for 30 min and stimulated with NGF (100 ng/ml). After 24 h, images (2/wound) were obtained of the same place on the wound as those initially taken. The distance between the 2 migration fronts was measured using ImageJ software.
as §1

For “IDDDEDFISST [Peptide 4, mimetic peptide 4 (…) corresponding to the C-terminal region of CD44v3]”, the “effect on length-to-width (l/w) ratio (elongation factor)” value in assay [1] is “This effect of NGF was inhibited”. Besides, the “effect on invasion of MDA-MB-231 cells” value in assay [2] was “a decrease in both basal levels and NGF-induced invasion was observed”. The “effect on TrkA/CD44v3 complex formation (PLA) in MDA-MB-231 cells” value in assay [3] is on record as “could disrupt TrkA/CD44v3 complex formation in MDA-MB-231 cells”. In addition, the “effect on migration (wound closure) of MDA-MB-231 cells” value in assay [4] was “completely blocked NGF-dependent wound closure”.

As for “NGF: recombinant human β-NGF (Alomone Labs, Israel)”, the “effect on length-to-width (l/w) ratio (elongation factor)” value in assay [1] is reported as “significant increase in the l/w ratio”. Moreover, in assay [2], the “effect on invasion of MDA-MB-231 cells” value is “more NGF-treated cells than untreated cells invaded the collagen substrate”. In addition, the “effect on TrkA/CD44v3 complex formation (PLA) in MDA-MB-231 cells” value in assay [3] is reported as “induced TrkA/CD44v3 complex formation in MDA-MB-231 cells at the plasma membrane within 5 min to 30 min of administration”. In addition, the “effect on migration (wound closure) of MDA-MB-231 cells” value in assay [4] is recorded as “the migration of MDA-MB-231 cells was increased, as indicated by complete wound closure 24 h after treatment”.

These data come from paper PMC8962522, “Direct interaction of TrkA/CD44v3 is essential for NGF-promoted aggressiveness of breast cancer cells” (Journal of Experimental & Clinical Cancer Research : CR, 2022).
